Biological target: T1, human orexin type 2 receptor (Homo sapiens, UniProt O43614)
T1 construct: expressed in transfected cells
T1 sequence (O43614 1-444): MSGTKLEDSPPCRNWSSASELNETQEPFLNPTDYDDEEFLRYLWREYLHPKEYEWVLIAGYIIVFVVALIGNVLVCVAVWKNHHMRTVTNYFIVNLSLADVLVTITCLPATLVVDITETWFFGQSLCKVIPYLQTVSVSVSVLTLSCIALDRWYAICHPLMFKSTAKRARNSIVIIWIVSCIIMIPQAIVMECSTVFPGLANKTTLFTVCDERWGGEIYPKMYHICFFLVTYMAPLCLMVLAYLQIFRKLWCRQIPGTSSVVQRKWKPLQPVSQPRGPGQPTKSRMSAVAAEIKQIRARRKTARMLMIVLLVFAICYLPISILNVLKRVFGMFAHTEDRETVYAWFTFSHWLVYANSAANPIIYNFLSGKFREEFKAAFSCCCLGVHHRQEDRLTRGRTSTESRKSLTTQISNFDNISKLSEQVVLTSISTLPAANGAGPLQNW
Test: Measurement of orexin type 2 receptor agonist activity (calcium fluorescence, Fluo-4 AM, FDSS)
Type: cell-based
Conditions: test compound 3 μM; CHO cells expressing human OX2 receptor; DMSO = 0%, orexin A (human) = 100%
Summary of the method: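 Agonist response scaled between vehicle (0%) and human orexin A at 10 nM final (100%), from 2-min kinetic Fluo-4 fluorescence reads. Stable hOX2R CHO-K1 clone, dye-loaded in HBSS/20 mM HEPES/0.1% BSA with 1.25 mM probenecid before compound addition.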

Point of comparison: `CS(=O)(=O)N[C@@H]1CN(C(=O)[C@@H]2C[C@@]2(F)c2ccccc2-c2c(F)cccc2F)CC[C@H]1O` [Example 348, N-{(3R,4R)-1-[(1S,2S)-2-(2′,6′-difluoro[1,1′-biphenyl]-2-yl)-2-fluorocyclopropane-1-carbonyl]-4-hydroxypiperidin-3-yl}methanesulfonamide], “OX2R agonist activity (3 μM, %)” value 97%. Against it:
- CS(=O)(=O)N[C@H]1CCCN(C(=O)C2C(c3ccccc3-c3c(F)cccc3F)C2(F)F)C1 (stereo partly drawn) [Example 330, N-{(3S)-1-[(1R,3R)-3-(2′,6′-difluoro[1,1′-biphenyl]-2-yl)-2,2-difluorocyclopropane-1-carbonyl]piperidin-3-yl}methanesulfonamide, or N-{(3S)-1-[(1S,3S)-3-(2′,6′-difluoro[1,1′-biphenyl]-2-yl)-2,2-difluorocyclopropane-1-carbonyl]piperidin-3-yl}methanesulfonamide] — lower, 91%
- CS(=O)(=O)NC1CN(C(=O)[C@@H]2C[C@@]2(F)c2ccccc2-c2c(F)cccc2F)CC1(F)F (stereo partly drawn) [Example 331, N-{(3R)-1-[(1S,2S)-2-(2′,6′-difluoro[1,1′-biphenyl]-2-yl)-2-fluorocyclopropane-1-carbonyl]-4,4-difluoropyrrolidin-3-yl}methanesulfonamide, or N-{(3S)-1-[(1S,2S)-2-(2′,6′-difluoro[1,1′-biphenyl]-2-yl)-2-fluorocyclopropane-1-carbonyl]-4,4-difluoropyrrolidin-3-yl}methanesulfonamide] — lower, 96%
- CS(=O)(=O)N[C@H]1C[C@H](O)CN(C(=O)[C@@H]2C[C@@]2(F)c2ccccc2-c2c(F)cccc2F)C1 [Example 332, N-{(3S,5S)-1-[(1S,2S)-2-(2′,6′-difluoro[1,1′-biphenyl]-2-yl)-2-fluorocyclopropane-1-carbonyl]-5-hydroxypiperidin-3-yl}methanesulfonamide] — lower, 95%
- CS(=O)(=O)N[C@@H]1CN(C(=O)[C@@H]2C[C@@]2(F)c2ccccc2-c2c(F)cccc2F)CCC1(F)F [Example 333, N-{(3R)-1-[(1S,2S)-2-(2′,6′-difluoro[1,1′-biphenyl]-2-yl)-2-fluorocyclopropane-1-carbonyl]-4,4-difluoropiperidin-3-yl}methanesulfonamide] — higher, 99%
- O=C([C@@H]1C[C@H]1c1ccccc1-c1c(F)cccc1F)N1CC[C@H]1CNS(=O)(=O)N1CCC1 [Example 334, N-({(2S)-1-[(1R,2R)-2-(2′,6′-difluoro[1,1′-biphenyl]-2-yl)cyclopropane-1-carbonyl]azetidin-2-yl}methyl)azetidine-1-sulfonamide] — lower, 96%
- CNS(=O)(=O)N[C@H]1CCN(C(=O)[C@@H]2C[C@H]2c2ccccc2-c2c(F)cccc2F)C1 [Example 335, N-{(3S)-1-[(1R,2R)-2-(2′,6′-difluoro[1,1′-biphenyl]-2-yl)cyclopropane-1-carbonyl]pyrrolidin-3-yl}-N′-methylsulfuric diamide] — lower, 96%
- CNS(=O)(=O)NC[C@@H]1CN(C(=O)[C@@H]2C[C@H]2c2ccccc2-c2c(F)cccc2F)CCO1 [Example 337, N-({(2S)-4-[(1R,2R)-2-(2′,6′-difluoro[1,1′-biphenyl]-2-yl)cyclopropane-1-carbonyl]morpholin-2-yl}methyl)-N′-methylsulfuric diamide] — higher, 100%
- O=C([C@@H]1C[C@H]1c1ccccc1-c1c(F)cccc1F)N1CCO[C@H](CNS(=O)(=O)N2CCC2)C1 [Example 338, N-({(2S)-4-[(1R,2R)-2-(2′,6′-difluoro[1,1′-biphenyl]-2-yl)cyclopropane-1-carbonyl]morpholin-2-yl}methyl)azetidine-1-sulfonamide] — higher, 98%
- CNS(=O)(=O)NC[C@@H]1CCN1C(=O)[C@@H]1C[C@H]1c1ccccc1-c1c(F)cccc1F [Example 339, N-({(2S)-1-[(1R,2R)-2-(2′,6′-difluoro[1,1′-biphenyl]-2-yl)cyclopropane-1-carbonyl]azetidin-2-yl}methyl)-N′-methylsulfuric diamide] — higher, 103%
- CS(=O)(=O)NC1CCC2CN(C(=O)[C@@H]3C[C@H]3c3ccccc3-c3c(F)cccc3F)CC21F (stereo partly drawn) [Example 340, N-{(3aR,4R,6aS)-2-[(1R,2R)-2-(2′,6′-difluoro[1,1′-biphenyl]-2-yl)cyclopropane-1-carbonyl]-3a-fluorooctahydrocyclopenta[c]pyrrol-4-yl}methanesulfonamide, or N-{(3aS,4S,6aR)-2-[(1R,2R)-2-(2′,6′-difluoro[1,1′-biphenyl]-2-yl)cyclopropane-1-carbonyl]-3a-fluorooctahydrocyclopenta[c]pyrrol-4-yl}methanesulfonamide] — lower, 94%
- CS(=O)(=O)N[C@H]1C[C@@H](O)CN(C(=O)[C@@H]2C[C@@]2(F)c2ccccc2-c2c(F)cccc2F)C1 [Example 341, N-{(3S,5R)-1-[(1S,2S)-2-(2′,6′-difluoro[1,1′-biphenyl]-2-yl)-2-fluorocyclopropane-1-carbonyl]-5-hydroxypiperidin-3-yl}methanesulfonamide] — higher, 101%
- CS(=O)(=O)NC1(CF)CCN(C(=O)[C@@H]2C[C@H]2c2ccccc2-c2c(F)cccc2F)C1 (stereo partly drawn) [Example 342, N-[(3R)-1-[(1R,2R)-2-(2′,6′-difluoro[1,1′-biphenyl]-2-yl)cyclopropane-1-carbonyl]-3-(fluoromethyl)pyrrolidin-3-yl]methanesulfonamide, or N-[(3S)-1-[(1R,2R)-2-(2′,6′-difluoro[1,1′-biphenyl]-2-yl)cyclopropane-1-carbonyl]-3-(fluoromethyl)pyrrolidin-3-yl]methanesulfonamide] — higher, 101%
- CC1(NS(C)(=O)=O)CCN(C(=O)[C@@H]2C[C@@]2(F)c2ccccc2-c2c(F)cccc2F)C1 (stereo partly drawn) [Example 344, N-{(3R)-1-[(1S,2S)-2-(2′,6′-difluoro[1,1′-biphenyl]-2-yl)-2-fluorocyclopropane-1-carbonyl]-3-methylpyrrolidin-3-yl}methanesulfonamide, or N-{(3S)-1-[(1S,2S)-2-(2′,6′-difluoro[1,1′-biphenyl]-2-yl)-2-fluorocyclopropane-1-carbonyl]-3-methylpyrrolidin-3-yl}methanesulfonamide] — lower, 95%
- COCC1(C(=O)N2CC[C@H](NS(C)(=O)=O)C2)CC1c1ccccc1-c1c(F)cccc1F (stereo partly drawn) [Example 346, N-{(3S)-1-[(1R,2S)-2-(2′,6′-difluoro[1,1′-biphenyl]-2-yl)-1-(methoxymethyl)cyclopropane-1-carbonyl]pyrrolidin-3-yl}methanesulfonamide, or N-{(3S)-1-[(1S,2R)-2-(2′,6′-difluoro[1,1′-biphenyl]-2-yl)-1-(methoxymethyl)cyclopropane-1-carbonyl]pyrrolidin-3-yl}methanesulfonamide] — higher, 100%
- COCC1(C(=O)N2CC[C@H]2CNS(C)(=O)=O)CC1c1ccccc1-c1c(F)cccc1F (stereo partly drawn) [Example 347, N-({(2S)-1-[(1R,2S)-2-(2′,6′-difluoro[1,1′-biphenyl]-2-yl)-1-(methoxymethyl)cyclopropane-1-carbonyl]azetidin-2-yl}methyl)methanesulfonamide, or N-({(2S)-1-[(1S,2R)-2-(2′,6′-difluoro[1,1′-biphenyl]-2-yl)-1-(methoxymethyl)cyclopropane-1-carbonyl]azetidin-2-yl}methyl)methanesulfonamide] — lower, 95%
